This data set is described as follows: molar heat capacity at constant pressure. Conditions: 100 kPa, Extra sensitive DSC.

Molecules are shown by their SMILES. Numbers after ± are expanded uncertainties.

For `CCn1cc[n+](C)c1.[Cl-]` [1-ethyl-3-methylimidazolium chloride], the “molar heat capacity at constant pressure” value (293.15 K, Crystal) amounted to 216.99 ± 12 J/K/mol; the “molar heat capacity at constant pressure” value (303.15 K, Crystal) came to 221.39 ± 12 J/K/mol; the “molar heat capacity at constant pressure” value (313.15 K, Crystal) is 224.33 ± 12 J/K/mol; the “molar heat capacity at constant pressure” value (363.15 K, Liquid) worked out at 284.44 ± 13 J/K/mol; the “molar heat capacity at constant pressure” value (373.15 K, Liquid) was 291.77 ± 13 J/K/mol.

(Values after the NIST ThermoML archive (doi:10.1021/acs.jced.8b00771).)
